These results are taken from patent US9573956B2, “Compounds as dual inhibitors of phosphodiesterases and histone deacetylases” (FUNDACIÓN PARA LA INVESTIGACIÓN MÉDICA APLICADA, priority 2013, dated 2017).

The target of assay [1] is T1, HDAC2 (Homo sapiens, UniProt Q92769).
T1 construct: NM_001527; Cat. #50002) is full-length with C-terminal his tag; His (C); purchased BPS Biosciences 50002; host or cells: baculovirus infected Sf9 cells
As to the kind of experiment: HDAC enzyme activity assay (fluorogenic substrate), HDAC2. It is filed as biochemical. As to conditions: recombinant enzyme; read-out: HDAC2 inhibition (IC50).

For assay [2], the target named is T2, PDE9A isoform b (Homo sapiens, UniProt O76083).
T2 construct: they are full-length with N-terminal GST tag; GST (N); purchased BPS Biosciences 60090; host or cells: baculovirus infected Sf9 cells
As to the kind of experiment: PDE enzyme activity assay (HTRF cGMP), PDE9A. It is filed as biochemical. As to conditions: recombinant enzyme; read-out: PDE9A inhibition (IC50).

Assay [3] concerns the target HDAC1 (Homo sapiens, UniProt Q13547). The assay can be described thus: HDAC enzyme activity assay (fluorogenic substrate), HDAC1. Type of assay: biochemical. The settings on record: recombinant enzyme; read-out: HDAC1 inhibition (IC50).
The target of assay [4] is T3, HDAC3 (Homo sapiens, UniProt O15379).
T3 construct: is full-length with C-terminal his tag and human NCOR2, N-terminal GST tag; His (C); purchased BPS Biosciences 50003; host or cells: baculovirus infected Sf9 cells
The assay can be described thus: HDAC enzyme activity assay (fluorogenic substrate), HDAC3. It is filed as biochemical. As to conditions: recombinant enzyme; read-out: HDAC3 inhibition (IC50).

Assay [5] has as its target T4, PDE5A (Homo sapiens, UniProt O76074).
T4 construct: they are full-length with N-terminal GST tag; GST (N); purchased BPS Biosciences 60050; host or cells: baculovirus infected Sf9 cells
The assay can be described thus: PDE enzyme activity assay (HTRF cGMP), PDE5A. Type of assay: biochemical. The settings on record: recombinant enzyme; read-out: PDE5A1 inhibition (IC50). Background: In TR-FRET formats the signal depends on donor and acceptor labels being close together.

Assay [6] concerns the target T5, HDAC6 (Homo sapiens, UniProt Q9UBN7).
T5 construct: BC069243; Cat. #50006) is full-length with N-terminal GST tag; GST (N); purchased BPS Biosciences 50006; host or cells: baculovirus infected Sf9 cells
T5 sequence (Q9UBN7 1-1215): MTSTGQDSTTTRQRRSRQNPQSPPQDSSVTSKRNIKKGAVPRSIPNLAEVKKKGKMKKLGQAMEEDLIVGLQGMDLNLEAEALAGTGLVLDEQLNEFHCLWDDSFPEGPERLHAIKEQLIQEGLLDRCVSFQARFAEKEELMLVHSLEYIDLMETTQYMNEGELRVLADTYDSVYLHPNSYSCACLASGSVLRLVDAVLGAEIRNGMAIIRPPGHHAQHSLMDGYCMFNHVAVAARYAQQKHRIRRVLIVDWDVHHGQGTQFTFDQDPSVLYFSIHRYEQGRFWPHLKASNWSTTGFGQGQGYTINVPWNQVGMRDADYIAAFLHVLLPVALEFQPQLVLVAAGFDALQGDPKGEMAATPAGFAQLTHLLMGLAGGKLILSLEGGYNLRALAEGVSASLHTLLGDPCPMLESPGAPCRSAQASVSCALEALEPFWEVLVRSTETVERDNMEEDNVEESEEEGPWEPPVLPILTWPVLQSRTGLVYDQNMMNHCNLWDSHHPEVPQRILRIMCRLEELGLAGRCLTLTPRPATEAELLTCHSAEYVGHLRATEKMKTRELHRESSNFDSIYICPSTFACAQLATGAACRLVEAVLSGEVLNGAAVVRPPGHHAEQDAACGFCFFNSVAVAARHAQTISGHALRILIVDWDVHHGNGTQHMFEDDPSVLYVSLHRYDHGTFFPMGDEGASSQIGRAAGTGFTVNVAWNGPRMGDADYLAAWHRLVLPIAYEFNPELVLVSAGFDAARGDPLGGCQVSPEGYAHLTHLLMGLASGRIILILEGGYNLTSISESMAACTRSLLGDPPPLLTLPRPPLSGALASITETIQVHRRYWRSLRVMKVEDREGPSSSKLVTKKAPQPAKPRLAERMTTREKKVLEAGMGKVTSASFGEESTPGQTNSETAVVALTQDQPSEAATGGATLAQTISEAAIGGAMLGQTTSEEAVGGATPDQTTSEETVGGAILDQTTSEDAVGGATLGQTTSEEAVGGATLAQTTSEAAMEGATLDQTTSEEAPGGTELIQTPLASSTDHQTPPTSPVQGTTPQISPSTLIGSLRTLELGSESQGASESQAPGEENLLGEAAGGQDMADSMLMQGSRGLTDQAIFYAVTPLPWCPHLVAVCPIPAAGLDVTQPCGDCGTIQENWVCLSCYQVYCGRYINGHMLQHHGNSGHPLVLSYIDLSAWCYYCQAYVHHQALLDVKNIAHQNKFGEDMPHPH
The assay can be described thus: HDAC enzyme activity assay (fluorogenic substrate), HDAC6. It is filed as biochemical. As to conditions: recombinant enzyme; read-out: HDAC6 inhibition (IC50).

Assay [7] has as its system acetylated histone 3 at Lys9 (AcH3K9). The assay can be described thus: HDAC activity in wild type primary neurons (Western blot AcH3K9). The settings on record: Mus musculus, Neuron, 0.5 h, 30 min, EC50 = 50% increase in AcH3K9 over basal, read-out: AcH3 (EC50). It is filed as cell-based, mouse. For orientation: Immunoblotting shows a protein as a band on a membrane.
The test system of assay [8] is pCREB. As to the kind of experiment: PDE activity in wild type primary neurons (Western blot pCREB). It is filed as cell-based. The settings on record: Mus musculus, Neuron, 0.5 h, 30 min, EC50 = 50% increase in pCREB over basal.
Assay [9] concerns pCREB. As to the kind of experiment: In-vivo activity, hippocampus of wild type mice: pCREB. Also on record: species or system mouse. As to conditions: i.p. 40 mg/kg, hippocampus one hour later. On the procedure: (§1) To determine the ability of the compounds to inhibit HDAC and PDE in the brain, the compound was administered to wild type mice by i.p. at a dose of 40 mg/kg (n=3). Another group of animals received the vehicle (1/1/8, v:v:v, DMSO/Tween 20/saline). One hour later, mice were sacrificed by cervical dislocation and their hippocampus was quickly dissected from the brains.
(§2) Total tissue homogenates were obtained by homogenizing the hippocampus in a cold lysis buffer with protease inhibitors (0.2 M NaCl, 0.1 M HEPES, 10% glycerol, 200 mM NaF, 2 mM Na4P2O7, 5 mM EDTA, 1 mM EGTA, 2 mM DTT, 0.5 mM PMSF, 1 mM Na3VO4 and Complete Protease Inhibitor Cocktail, Roche Diagnostics). The homogenate was then centrifuged at 14,000×g at 4° C. for 20 min and the supernatant aliquoted and stored at −80° C. Total protein concentrations were determined using the BioRad Bradford protein assay (BioRad Laboratories). Protein samples were analyzed as described in the “in vitro” section.

Assay [10] relates to AcH3. The assay can be described thus: In-vivo activity, hippocampus of wild type mice: AcH3. The settings on record: i.p. 40 mg/kg, hippocampus one hour later. Also noted: species or system mouse. On the procedure: as §1, §2

HDAC1, sequence (Q13547 whole entry): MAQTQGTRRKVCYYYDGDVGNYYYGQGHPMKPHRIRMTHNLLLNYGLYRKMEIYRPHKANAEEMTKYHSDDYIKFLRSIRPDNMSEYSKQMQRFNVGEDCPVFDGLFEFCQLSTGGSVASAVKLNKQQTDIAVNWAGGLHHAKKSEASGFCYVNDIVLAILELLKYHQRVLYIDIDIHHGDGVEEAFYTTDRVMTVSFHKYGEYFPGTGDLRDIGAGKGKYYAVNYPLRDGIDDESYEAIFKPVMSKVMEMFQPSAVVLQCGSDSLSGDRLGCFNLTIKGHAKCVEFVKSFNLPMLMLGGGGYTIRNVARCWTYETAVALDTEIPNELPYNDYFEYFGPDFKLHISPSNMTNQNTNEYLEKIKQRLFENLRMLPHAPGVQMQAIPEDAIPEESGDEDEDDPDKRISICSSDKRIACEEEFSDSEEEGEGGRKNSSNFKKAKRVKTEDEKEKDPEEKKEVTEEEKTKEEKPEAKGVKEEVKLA
T1 sequence (Q92769 whole entry): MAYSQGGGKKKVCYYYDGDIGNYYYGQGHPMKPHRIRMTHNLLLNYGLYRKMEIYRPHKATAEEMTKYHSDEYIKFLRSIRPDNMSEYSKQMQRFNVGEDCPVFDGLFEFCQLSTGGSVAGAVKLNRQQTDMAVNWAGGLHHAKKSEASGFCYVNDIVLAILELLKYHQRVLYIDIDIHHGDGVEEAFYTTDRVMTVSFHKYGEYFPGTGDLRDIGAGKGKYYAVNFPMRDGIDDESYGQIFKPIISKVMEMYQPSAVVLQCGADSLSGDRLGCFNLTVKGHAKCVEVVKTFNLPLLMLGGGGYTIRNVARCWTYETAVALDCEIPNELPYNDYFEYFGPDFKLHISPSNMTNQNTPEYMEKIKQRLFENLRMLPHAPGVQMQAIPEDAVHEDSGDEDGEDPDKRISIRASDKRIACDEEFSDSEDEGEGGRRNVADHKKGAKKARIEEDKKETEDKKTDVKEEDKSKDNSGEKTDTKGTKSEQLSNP
T3 sequence (O15379 whole entry): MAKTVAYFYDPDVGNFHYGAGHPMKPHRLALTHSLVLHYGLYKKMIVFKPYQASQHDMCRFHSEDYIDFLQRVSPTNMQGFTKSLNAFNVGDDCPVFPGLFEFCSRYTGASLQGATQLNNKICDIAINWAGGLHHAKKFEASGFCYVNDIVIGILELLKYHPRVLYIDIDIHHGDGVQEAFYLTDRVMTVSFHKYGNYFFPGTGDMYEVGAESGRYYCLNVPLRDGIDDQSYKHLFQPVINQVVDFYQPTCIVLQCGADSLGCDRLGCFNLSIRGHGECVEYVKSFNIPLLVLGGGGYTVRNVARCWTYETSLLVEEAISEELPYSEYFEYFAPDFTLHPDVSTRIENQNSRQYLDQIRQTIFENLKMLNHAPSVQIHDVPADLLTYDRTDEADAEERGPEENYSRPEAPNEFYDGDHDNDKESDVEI
T3 sequence (Q9Y618 395-489 partner limits assumed): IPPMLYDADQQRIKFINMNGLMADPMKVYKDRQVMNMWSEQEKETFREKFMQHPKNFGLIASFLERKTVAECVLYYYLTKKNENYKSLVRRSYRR
T2 sequence (O76083 1-533 isoform O76083-2): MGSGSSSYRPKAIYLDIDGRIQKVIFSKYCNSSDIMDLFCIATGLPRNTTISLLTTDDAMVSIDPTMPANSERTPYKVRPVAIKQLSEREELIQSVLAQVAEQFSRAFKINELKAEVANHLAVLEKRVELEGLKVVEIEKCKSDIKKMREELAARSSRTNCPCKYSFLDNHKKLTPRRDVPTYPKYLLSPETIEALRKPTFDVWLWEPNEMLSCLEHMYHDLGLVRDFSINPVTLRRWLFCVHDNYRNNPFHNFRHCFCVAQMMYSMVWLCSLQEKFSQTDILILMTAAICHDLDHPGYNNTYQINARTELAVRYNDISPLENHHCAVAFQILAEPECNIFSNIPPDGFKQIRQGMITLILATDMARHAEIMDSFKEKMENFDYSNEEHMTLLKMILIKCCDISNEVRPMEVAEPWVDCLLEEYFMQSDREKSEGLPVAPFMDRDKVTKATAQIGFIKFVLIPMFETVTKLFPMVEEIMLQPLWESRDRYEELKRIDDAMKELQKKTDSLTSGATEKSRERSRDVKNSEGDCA

As a reminder, the IC50 is the point on the concentration scale where inhibition reaches its midpoint. Turning to `CCCc1nn(C)c2c(=O)[nH]c(-c3cc(S(=O)(=O)NC4CCN(c5ncc(C(=O)NO)cn5)CC4)ccc3OCC)nc12` [Example 1-07], the half-maximal inhibitory concentration (IC50) in [1] is 10 to 1000 nM; in assay [2], 1000 to 10000 nM; in [3], 10 to 1000 nM; in assay [4] it was 10 to 1000 nM; in assay [5], under 10 nM; in assay [6], 10 to 1000 nM.

For `CCCc1nn(C)c2c(=O)[nH]c(-c3cc(Cc4ccc(C(=O)NO)o4)ccc3OCC)nc12` [Example 1-17], the 50% inhibitory concentration (IC50) in [1] was over 10000 nM; in assay [3], 1000 to 10000 nM; in [4], over 10000 nM; in assay [5], under 10 nM; in [6] it was 10 to 1000 nM.

As for `CCCc1nn(C)c2c(=O)[nH]c(-c3cc(Cc4ccc(CC(=O)NO)cc4)ccc3OCC)nc12` [Example 1-18], the concentration for half-maximal inhibition (IC50) is over 10000 nM in [1]; over 10000 nM in assay [3]; over 10000 nM in assay [4]; 10 to 1000 nM in assay [5]; 10 to 1000 nM in assay [6].

`CCCc1nn(C)c2c(=O)[nH]c(-c3cc(NC4CCN(c5ncc(C(=O)NO)cn5)CC4)ccc3OCC)nc12` [Example 1-22, 2-[4-[4-ethoxy-3-(1-methyl-7-oxo-3-propyl-6H-pyrazolo[4,3-d]pyrimidin-5-yl)anilino]-1-piperidyl]pyrimidine-5-carbohydroxamic acid]: the concentration for half-maximal inhibition (IC50) in assay [1] was 10 to 1000 nM; in assay [3] it was 10 to 1000 nM; in [4] it was 10 to 1000 nM; in assay [5], under 10 nM; in assay [6], 10 to 1000 nM.

On to `CCCc1nn(C)c2c(=O)[nH]c(-c3cc(CC4CCN(c5ncc(C(=O)NO)cn5)CC4)ccc3OCC)nc12` [Example 1-24, 2-[4-[[4-ethoxy-3-(1-methyl-7-oxo-3-propyl-6H-pyrazolo[4,3-d]pyrimidin-5-yl)phenyl]methyl]-1-piperidyl]pyrimidine-5-carbohydroxamic acid], for which the IC50 in assay [1] was 10 to 1000 nM; in [3] it was 10 to 1000 nM; in assay [4] it was 10 to 1000 nM; in assay [5] it was under 10 nM; in assay [6] it was 1000 to 10000 nM.

Take `CCCc1nn(C)c2c(=O)[nH]c(-c3cc(N(C)C4CCN(c5ncc(C(=O)NO)cn5)CC4)ccc3OCC)nc12` [Example 1-25]: the half-maximal inhibitory concentration (IC50) is 10 to 1000 nM in [1]; 10 to 1000 nM in [3]; 10 to 1000 nM in [4]; under 10 nM in assay [5]; 10 to 1000 nM in assay [6]. Besides, the values for the EC50 in assay [7] and in assay [8] were 10 to 1000 nM and 1000 to 10000 nM, respectively.

Regarding `CCCc1nn(C)c2c(=O)[nH]c(-c3cc(CC4CCC(C(=O)NO)CC4)ccc3OCC)nc12` (stereo not shown) [Example 1-29, 4-[[4-ethoxy-3-(1-methyl-7-oxo-3-propyl-6H-pyrazolo[4,3-d]pyrimidin-5-yl)phenyl]methyl]cyclohexanecarbohydroxamic acid], the IC50 is over 10000 nM in [1], 10 to 1000 nM in [3], 10 to 1000 nM in [5] and 10 to 1000 nM in [6]. The EC50 in assay [7] and in assay [8] was 1000 to 10000 nM in each case.

As to `CCCc1nn(C)c2c(=O)[nH]c(-c3cc(-c4ccc(C(=O)NO)cc4)ccc3OCC)nc12` [Example 1-30], the concentration for half-maximal inhibition (IC50) in assay [1] is 1000 to 10000 nM; in assay [3], 10 to 1000 nM; in assay [5], under 10 nM; in assay [6] it was 10 to 1000 nM. Also, the EC50 in assay [7] and in [8] was 10 to 1000 nM in each case.

In the case of `CCCc1nn(C)c2c(=O)[nH]c(-c3cc(C4CCC(C(=O)NO)CC4)ccc3OCC)nc12` (stereo not shown) [Example 1-40, 4-[4-ethoxy-3-(1-methyl-7-oxo-3-propyl-6H-pyrazolo[4,3-d]pyrimidin-5-yl)phenyl]cyclohexanecarbohydroxamic acid], the IC50 was over 10000 nM in assay [1], 1000 to 10000 nM in [3], 10 to 1000 nM in assay [5] and 10 to 1000 nM in assay [6]. Also, the results for the EC50 in assay [7] and in assay [8] were 10 to 1000 nM and 1000 to 10000 nM, respectively.

With `CCCc1nn(C)c2c(=O)[nH]c(-c3cc(CN4CCN(c5ncc(C(=O)NO)cn5)CC4)ccc3OCC)nc12` [Example 1-48, 2-[4-[[4-ethoxy-3-(1-methyl-7-oxo-3-propyl-6H-pyrazolo[4,3-d]pyrimidin-5-yl)phenyl]methyl]piperazin-1-yl]pyrimidine-5-carbohydroxamic acid], the concentration for half-maximal inhibition (IC50) in assay [1] is 10 to 1000 nM; in [3], 10 to 1000 nM; in assay [5], under 10 nM; in assay [6], 10 to 1000 nM. In addition, the EC50 in assay [7] and in assay [8] was 10 to 1000 nM in each case.

As to `CCCc1nc(C)c2c(=O)[nH]c(-c3cc(CC4CC(C(=O)NO)C4)ccc3OCC)nn12` (stereo not shown) [Example 2-07, 3-[[4-ethoxy-3-(5-methyl-4-oxo-7-propyl-3H-imidazo[5,1-f][1,2,4]triazin-2-yl)phenyl]methyl]cyclobutanecarbohydroxamic acid], the IC50 in assay [1] was 1000 to 10000 nM; in assay [3], 10 to 1000 nM; in assay [5] it was under 10 nM; in assay [6] it was 10 to 1000 nM. Moreover, the EC50 in [7] and in assay [8] was 10 to 1000 nM in each case.

With `O=C(CCCCCCC(=O)Nc1ccccc1)NO` [Vorinostat, reference compound], in assay [9], the “pCREB, increment in biological response vs basal” value was “N.E. (N.E. means No Effect)”. For the same molecule, the IC50 in [2] and in [5] was over 10000 nM throughout. For the same molecule, in [10], the “AcH3, increment in biological response vs basal” value is recorded as “+++ (basal×2≦(+++)<basal×3)”.
